Assay [1] deals with T1, EcSecA (Escherichia coli, UniProt P10408). Description: cell-based.
Target sequence in this assay (P10408 whole entry): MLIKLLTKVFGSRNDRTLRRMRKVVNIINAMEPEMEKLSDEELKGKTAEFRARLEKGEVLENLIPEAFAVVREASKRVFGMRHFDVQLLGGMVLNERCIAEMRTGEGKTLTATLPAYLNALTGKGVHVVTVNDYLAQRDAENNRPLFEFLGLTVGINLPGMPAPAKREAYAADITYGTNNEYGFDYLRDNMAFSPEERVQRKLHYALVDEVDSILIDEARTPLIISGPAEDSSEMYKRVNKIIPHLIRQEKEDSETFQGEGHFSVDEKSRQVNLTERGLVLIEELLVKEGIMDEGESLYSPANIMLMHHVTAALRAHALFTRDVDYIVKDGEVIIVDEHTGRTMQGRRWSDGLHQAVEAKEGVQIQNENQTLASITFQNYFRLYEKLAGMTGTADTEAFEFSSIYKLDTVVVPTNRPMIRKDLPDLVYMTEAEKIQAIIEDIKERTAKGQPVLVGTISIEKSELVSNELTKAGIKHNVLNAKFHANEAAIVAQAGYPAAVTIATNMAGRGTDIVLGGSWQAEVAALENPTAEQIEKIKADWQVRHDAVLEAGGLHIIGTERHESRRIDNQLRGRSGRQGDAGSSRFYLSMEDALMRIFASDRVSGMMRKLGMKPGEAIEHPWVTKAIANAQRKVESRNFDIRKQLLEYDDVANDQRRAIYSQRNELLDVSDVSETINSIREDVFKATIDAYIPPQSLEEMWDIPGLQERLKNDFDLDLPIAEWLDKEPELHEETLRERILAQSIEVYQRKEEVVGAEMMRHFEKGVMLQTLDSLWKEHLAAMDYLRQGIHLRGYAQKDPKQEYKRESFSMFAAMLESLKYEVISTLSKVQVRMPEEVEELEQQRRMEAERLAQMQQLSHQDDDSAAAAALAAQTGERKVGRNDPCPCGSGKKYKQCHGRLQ
For assay [2], the target named is T2, BsSecA (Bacillus subtilis, UniProt P28366). Description: cell-based. To be noted: Ion channel, IC50, BsSecA, Table 5. On the set-up: species or system B. subtilis.
The test system of assay [3] is B. subtilis 168. Kind of assay: Bacteriostatic effect, liquid microdilution, B. subtilis 168. It counts as cell-based. To be noted: Bacillus subtilis, Example 2. (Broth dilution looks for growth in wells or tubes with falling amounts of substance.)
Assay [4] deals with EcSecA.
The target in assay [5] is T1, EcSecA. Particulars: read-out: IC50, in vitro protein translocation of proOmpA; Example 1.
Target sequence in this assay (P0AG99 whole entry): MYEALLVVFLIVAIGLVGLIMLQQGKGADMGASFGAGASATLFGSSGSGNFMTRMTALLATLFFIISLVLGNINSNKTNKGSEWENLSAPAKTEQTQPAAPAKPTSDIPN
Target sequence in this assay (P10408 whole entry): as the sequence (P10408 whole entry) above
Target sequence in this assay (P0AGA2 whole entry, further chain): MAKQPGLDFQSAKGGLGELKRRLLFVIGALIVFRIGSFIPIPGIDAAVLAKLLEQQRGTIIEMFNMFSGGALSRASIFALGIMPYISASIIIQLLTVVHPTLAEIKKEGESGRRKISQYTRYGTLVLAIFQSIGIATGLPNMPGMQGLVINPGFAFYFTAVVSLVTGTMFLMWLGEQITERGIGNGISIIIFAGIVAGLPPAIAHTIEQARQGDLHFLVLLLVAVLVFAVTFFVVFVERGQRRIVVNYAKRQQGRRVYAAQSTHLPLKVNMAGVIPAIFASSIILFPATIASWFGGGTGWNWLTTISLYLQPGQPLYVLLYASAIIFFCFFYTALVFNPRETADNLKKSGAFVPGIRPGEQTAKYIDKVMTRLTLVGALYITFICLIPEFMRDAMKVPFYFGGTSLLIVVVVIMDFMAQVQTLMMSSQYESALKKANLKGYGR
Target sequence in this assay (P0AG96 whole entry, further chain): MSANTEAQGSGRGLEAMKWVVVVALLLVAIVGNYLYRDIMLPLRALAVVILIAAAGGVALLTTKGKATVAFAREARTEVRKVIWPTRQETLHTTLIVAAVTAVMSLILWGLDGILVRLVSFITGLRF
Assay [6] deals with EcSecA. It is filed as biochemical, E. coli.
The target of assay [7] is T1, EcSecA. To be noted: read-out: IC50, membrane ATPase activity of EcSecA; Example 1.
Target sequence in this assay (P0AG99 whole entry): as the sequence (P0AG99 whole entry) above
Target sequence in this assay (P10408 whole entry): as the sequence (P10408 whole entry) above
Target sequence in this assay (P0AGA2 whole entry, further chain): as the sequence (P0AGA2 whole entry, further chain) above
Target sequence in this assay (P0AG96 whole entry, further chain): as the sequence (P0AG96 whole entry, further chain) above
Assay [8] concerns the target T2, BsSecA. Kind of assay: biochemical. It is filed as biochemical, B. subtilis. To be noted: Example 1.
Assay [9] concerns the target EcSecA N68 (Escherichia coli, UniProt P10408). Kind of assay: biochemical. It is filed as biochemical, E. coli. Particulars: Example 1, fluorescein analogs; read-out: IC50, EcN68 SecA ATPase (unregulated ATPase).
In assay [10] the target is F1F0-proton ATPase (Escherichia coli, UniProt P0ABB0+P0ABB4). Kind of assay: Proton ATPase activity, reconstituted liposomes. It counts as biochemical, E. coli. As to the method:
The N-terminal catalytic domain of SecA from E. coli (EcN68) was overexpressed from pIMBB28. EcN68 was used for the early and initial screening because it has higher intrinsic activity and is more sensitive to inhibitors. […] SecA proteins were purified as previously described. F1F0-proton ATPase-enriched membrane of E. coli strain KY7485 was prepared as described in the literature. F1F0-proton ATPase was partially purified by sucrose-gradient fractionation and then reconstituted into liposomes by dialysis. Non-radiolabeled and [^35S]-labeled proOmpA were purified as previously described. SecA-depleted BA13 membrane vesicles were prepared as described in the literature,[32] and washed with 6M urea to reduce endogenous ATPase activity.

Assay [11] concerns the target T1, EcSecA. To be noted: read-out: IC50, translocation ATPase activity of EcSecA; Example 1.
Target sequence in this assay (P0AG99 whole entry): as the sequence (P0AG99 whole entry) above
Target sequence in this assay (P10408 whole entry): as the sequence (P10408 whole entry) above
Target sequence in this assay (P0AGA2 whole entry, further chain): as the sequence (P0AGA2 whole entry, further chain) above
Target sequence in this assay (P0AG96 whole entry, further chain): as the sequence (P0AG96 whole entry, further chain) above
The target in assay [12] is PaSecA (Pseudomonas aeruginosa, UniProt Q9LCT3). Description: cell-based. It is filed as cell-based.
Sequence of PaSecA (Q9LCT3 whole entry): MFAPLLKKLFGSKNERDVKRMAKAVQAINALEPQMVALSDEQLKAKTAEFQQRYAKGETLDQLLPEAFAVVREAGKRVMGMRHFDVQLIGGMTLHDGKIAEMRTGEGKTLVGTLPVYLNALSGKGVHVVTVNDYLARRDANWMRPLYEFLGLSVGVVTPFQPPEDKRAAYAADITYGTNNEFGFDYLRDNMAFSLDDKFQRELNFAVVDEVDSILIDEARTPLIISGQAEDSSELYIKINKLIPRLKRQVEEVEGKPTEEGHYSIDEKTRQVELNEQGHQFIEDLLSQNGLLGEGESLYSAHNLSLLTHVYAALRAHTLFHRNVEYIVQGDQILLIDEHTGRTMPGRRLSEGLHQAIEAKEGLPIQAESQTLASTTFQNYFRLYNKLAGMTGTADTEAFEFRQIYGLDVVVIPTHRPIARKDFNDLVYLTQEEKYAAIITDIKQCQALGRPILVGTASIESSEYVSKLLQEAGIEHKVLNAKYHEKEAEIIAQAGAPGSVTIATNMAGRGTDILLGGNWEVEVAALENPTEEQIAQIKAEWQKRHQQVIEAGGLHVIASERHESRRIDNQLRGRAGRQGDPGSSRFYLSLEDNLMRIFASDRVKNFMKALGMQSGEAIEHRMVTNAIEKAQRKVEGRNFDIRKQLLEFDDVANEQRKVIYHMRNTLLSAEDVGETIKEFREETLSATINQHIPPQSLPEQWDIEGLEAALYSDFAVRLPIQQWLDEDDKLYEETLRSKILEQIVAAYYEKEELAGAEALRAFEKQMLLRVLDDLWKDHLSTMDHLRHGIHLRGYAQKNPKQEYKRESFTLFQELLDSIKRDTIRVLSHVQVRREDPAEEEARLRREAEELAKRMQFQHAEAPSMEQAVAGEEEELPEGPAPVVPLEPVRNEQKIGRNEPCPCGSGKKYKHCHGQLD
In assay [13] the test system is S. pyogenes, MGAS5005. Kind of assay: MIC95, S. pyogenes MGAS5005. It counts as cell-based. Particulars: Streptococcus pyogenes, MGAS5005, read-out: MIC95, S. pyogenes MGAS5005.
The subject of assay [14] is S. aureus N315. Kind of assay: Bacteriostatic effect, S. aureus N315. Particulars: Staphylococcus aureus, N315, read-out: Bacteriostatic effect, MIC, S. aureus N315.
In assay [15] the test system is S. aureus 6538. Description: Bacteriostatic effect, S. aureus 6538. Particulars: Staphylococcus aureus, 6538, read-out: Bacteriostatic effect, MIC, S. aureus 6538.
Assay [16] addresses SpSecA (Streptococcus pyogenes, UniProt Q99Y96). It is filed as cell-based. To be noted: read-out: IC50, Ion Channel activity, SpSecA; Table 1.
The test system of assay [17] is S. aureus Mu50. Description: Bacteriostatic effect, S. aureus Mu50. Particulars: Staphylococcus aureus.
Assay [18] addresses BsSecA2. To be noted: read-out: IC50, Intrinsic ATPase, BsSecA2; Table 1.
For assay [19], the target named is T3, SaSecA2 (Staphylococcus aureus, UniProt Q2FUW6).
T3 sequence (Q2FUW6 1-796): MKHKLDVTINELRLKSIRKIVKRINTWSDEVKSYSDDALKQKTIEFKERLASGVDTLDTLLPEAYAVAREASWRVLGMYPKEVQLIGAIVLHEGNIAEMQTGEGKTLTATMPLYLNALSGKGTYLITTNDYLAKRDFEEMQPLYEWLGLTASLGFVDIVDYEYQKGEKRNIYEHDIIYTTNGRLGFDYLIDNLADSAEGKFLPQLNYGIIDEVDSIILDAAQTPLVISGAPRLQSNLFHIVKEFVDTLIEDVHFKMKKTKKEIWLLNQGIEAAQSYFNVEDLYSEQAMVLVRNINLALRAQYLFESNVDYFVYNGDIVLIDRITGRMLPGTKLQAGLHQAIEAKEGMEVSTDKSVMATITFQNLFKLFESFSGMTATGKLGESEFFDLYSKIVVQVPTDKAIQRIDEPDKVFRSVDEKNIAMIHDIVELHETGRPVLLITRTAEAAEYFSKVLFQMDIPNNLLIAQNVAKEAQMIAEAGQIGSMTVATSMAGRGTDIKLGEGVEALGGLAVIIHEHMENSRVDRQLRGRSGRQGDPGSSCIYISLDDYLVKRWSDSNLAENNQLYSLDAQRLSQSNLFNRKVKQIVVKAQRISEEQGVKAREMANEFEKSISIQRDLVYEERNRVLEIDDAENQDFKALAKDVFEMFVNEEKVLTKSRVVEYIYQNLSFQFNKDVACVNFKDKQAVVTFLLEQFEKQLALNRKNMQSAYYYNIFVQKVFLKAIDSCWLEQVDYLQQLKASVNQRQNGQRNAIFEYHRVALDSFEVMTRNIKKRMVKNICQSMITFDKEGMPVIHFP
Kind of assay: ATPase activity assay (malachite green), SaSecA2.

Assay [20] is described as follows: Bactericidal effect in the dark and under light (photooxidation). It is filed as cell-based.
Assay [21] relates to SecA (S. pyogenes, S. aureus, and E. coli). Kind of assay: Oocyte assay, inhibition of SecA. Particulars: read-out: IC50, inhibiting SecA in the oocyte assay.
The test system of assay [22] is S. aureus Mu3. Description: Bacteriostatic effect, S. aureus Mu3. To be noted: Staphylococcus aureus, MU3, read-out: Bacteriostatic effect, MIC, S. aureus Mu3.
In assay [23] the test system is B. subtilis 168. Description: Bactericidal effect assay, B. subtilis 168. It is filed as cell-based.
For assay [24], the system named is S. aureus 8325-4. Kind of assay: Bacteriostatic effect, S. aureus 8325-4 (WT). Particulars: Staphylococcus aureus, 83254, read-out: Bacteriostatic effect, MIC, WT 8325-4.
Assay [25] relates to B. anthracis Sterne. Kind of assay: microbe, parasite or virus in culture. It is filed as cell-based. To be noted: Bacillus anthracis, read-out: Bacteriostatic MIC95, B. anthracis Sterne.

≈ marks a conversion by molar mass, not a printed value. Where two headings read alike, the source gives them in different places.

The source of these data is patent publication US9957247B2, “SecA inhibitors and methods of making and using thereof” (Georgia State University Research Foundation, Inc., priority 2012, dated 2018).

Broadly, the IC50 is the concentration at which inhibition is half-maximal.

T2 sequence (P28366 whole entry): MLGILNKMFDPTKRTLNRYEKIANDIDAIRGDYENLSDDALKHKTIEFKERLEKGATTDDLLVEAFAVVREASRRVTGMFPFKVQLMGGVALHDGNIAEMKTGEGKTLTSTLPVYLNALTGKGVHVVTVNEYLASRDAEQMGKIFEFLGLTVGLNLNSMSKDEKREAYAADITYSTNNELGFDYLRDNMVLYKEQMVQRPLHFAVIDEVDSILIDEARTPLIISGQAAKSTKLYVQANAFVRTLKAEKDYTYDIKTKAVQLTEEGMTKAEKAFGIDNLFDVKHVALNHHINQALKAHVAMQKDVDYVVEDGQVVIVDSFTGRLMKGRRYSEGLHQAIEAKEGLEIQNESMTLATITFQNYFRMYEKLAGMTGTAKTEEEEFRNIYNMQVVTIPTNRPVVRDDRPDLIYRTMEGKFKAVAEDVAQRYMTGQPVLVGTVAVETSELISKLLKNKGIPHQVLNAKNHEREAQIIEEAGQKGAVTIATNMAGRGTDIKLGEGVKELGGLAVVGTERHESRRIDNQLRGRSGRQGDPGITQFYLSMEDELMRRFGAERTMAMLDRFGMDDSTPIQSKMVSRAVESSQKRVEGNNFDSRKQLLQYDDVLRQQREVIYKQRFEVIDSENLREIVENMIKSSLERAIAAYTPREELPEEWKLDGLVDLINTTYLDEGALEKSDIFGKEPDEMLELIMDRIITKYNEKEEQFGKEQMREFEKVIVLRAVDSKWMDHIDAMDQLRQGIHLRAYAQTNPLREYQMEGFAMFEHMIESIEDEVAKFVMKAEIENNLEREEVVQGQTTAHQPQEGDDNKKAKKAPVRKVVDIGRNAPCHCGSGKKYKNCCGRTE
Sequence of EcSecA N68 (P10408 1-610): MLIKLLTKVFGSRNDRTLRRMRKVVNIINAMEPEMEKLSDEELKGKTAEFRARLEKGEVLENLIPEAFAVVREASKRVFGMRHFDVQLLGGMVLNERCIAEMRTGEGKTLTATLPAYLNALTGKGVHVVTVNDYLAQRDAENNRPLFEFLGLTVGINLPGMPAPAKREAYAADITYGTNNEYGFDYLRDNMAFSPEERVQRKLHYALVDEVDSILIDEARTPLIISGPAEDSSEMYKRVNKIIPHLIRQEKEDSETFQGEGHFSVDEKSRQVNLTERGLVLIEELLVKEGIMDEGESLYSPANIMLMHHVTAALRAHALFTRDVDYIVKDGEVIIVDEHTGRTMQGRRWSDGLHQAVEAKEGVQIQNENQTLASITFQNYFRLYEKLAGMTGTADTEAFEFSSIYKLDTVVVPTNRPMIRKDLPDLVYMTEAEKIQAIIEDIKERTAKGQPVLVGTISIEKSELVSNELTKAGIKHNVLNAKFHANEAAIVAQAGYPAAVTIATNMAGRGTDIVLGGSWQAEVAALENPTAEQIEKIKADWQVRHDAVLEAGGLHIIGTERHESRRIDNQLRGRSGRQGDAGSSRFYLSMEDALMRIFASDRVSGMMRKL

`Oc1ccc2c(c1)Oc1cc(O)ccc1C2C1CCCCC1` [Compound 22d, 9-Cyclohexyl-9H-xanthene-3,6-diol]: the IC50 in assay [1] turned out to be 2800 nM; in [2] it was 6600 nM. Besides, the MIC in assay [3] amounted to 22 µM (≈ 6.52 µg/mL). In addition, the “Potency against EcSecA over BsSecA, channel activity” value in assay [4] is given as “about 2 fold”.
`O.O=C([O-])c1ccccc1-c1c2cc(I)c(=O)c(I)c-2oc2c(I)c([O-])c(I)cc12.[Na+].[Na+]` [EB, Erythrosin B]: the IC50 in assay [5] is 4000 nM; in assay [7], 10000 to 20000 nM; in assay [9], 2000 nM; in assay [10] (Example 1, read-out: IC50 against F1F0-proton ATPase), about 30000 nM; in assay [11] it was 10000 to 20000 nM. Further, in assay [6] (at low ATP concentrations), the “Mode of inhibition against ATP” value is “competitive inhibitors”. In assay [8], the “Effect on the intrinsic ATPase activity of BsSecA” value is given as “inhibitory effects”.
As for `O=C(O)c1c(Cl)c(Cl)c(Cl)c(Cl)c1-c1c2cc(I)c(=O)c(I)c-2oc2c(I)c(O)c(I)cc12` [RB, Rose Bengal], the “Inhibition kinetics, channel activity, PaSecA-liposomes” value in [12] (FIG. 3C) is on record as “non-competitive inhibition”. Also, the IC50 is 300 nM in assay [12] (IC50, Ion Channel activity, PASecA, Table 1); 2000 nM in assay [12] (Rose Bengal IC50, channel activity, PaSecA, +SecYEG + SecDF•C); 5100 nM in assay [12] (Rose Bengal IC50, channel activity, PaSecA, BA13, BA13 (first value of BA13/Re-13)); 1100 nM in assay [12] (Rose Bengal IC50, channel activity, PaSecA, Liposome + SecYEG); 300 nM in [12] (Rose Bengal IC50, channel activity, PaSecA, Liposomes); 300 nM in assay [12] (Rose Bengal IC50, channel activity, PaSecA, Re-13, Re-13 (second value of BA13/Re-13)). In addition, the IC50 is 900 nM in assay [16]; 15000 nM in [18]; 2500 nM in [19] (IC50, ATPase activity, SaSecA2, Table 7); 1000 nM in assay [19] (IC50, Intrinsic ATPase, SaSecA2, Table 1); 400 nM in assay [21]; about 10000 nM in assay [10]. In [6] (at high ATP concentrations), the “Mode of inhibition against ATP” value is reported as “competitive inhibition”. The MIC in assay [13] is 6.25 µM (≈ 6.09 µg/mL); in [14], 19.1 µg/mL (≈ 19.6 µM); in [15] it was 38.2 µg/mL (≈ 39.2 µM); in assay [17] (MU50, read-out: Bacteriostatic MIC95, S. aureus Mu50), 40.7 µg/mL (≈ 41.8 µM); in [17] (MU50, read-out: Bacteriostatic effect MIC, S. aureus Mu50), 50.8 µg/mL (≈ 52.2 µM); in assay [17] (MU50, read-out: Bacteriostatic effect, MIC, S. aureus Mu50) it was 50.8 µg/mL (≈ 52.2 µM). Moreover, the MIC in assay [3] stood at 100 µM (≈ 97.4 µg/mL); in [22], 38.2 µg/mL (≈ 39.2 µM); in assay [24], 13.2 µg/mL (≈ 13.6 µM); in assay [25], 12.2 µg/mL (≈ 12.5 µM). Besides, the “Effect on the intrinsic ATPase activity of BsSecA” value in assay [8] is “inhibitory effects”. In addition, the “Bactericidal effect in the dark” value in [20] (dark) is “little bactericidal effect”. The “Effect of light on the bactericidal effect” value in assay [20] (under light versus dark) is given as “dramatically increased”. Also, in [23] (20 μM, one hour, FIG. 2), the “Bactericidal effect, kill of B. subtilis 168” value is listed as “little effect”. Moreover, the “Decrease of cell survival (CFU)” value in assay [23] (100 μM, one-hour treatment) is listed as about 8 log units.
